From patent US20110306663A1 (Baylor Research Institute, priority 2010, published 2011)
“And” between values parts separate entries of the source, which are not always exact repeats. Equal entries are not always repeated.

What was measured:
[1] = tested on: patient with adult-onset acid maltase deficiency (Pompe disease); conditions: one patient; cited from earlier work
[2] = tested on: patients with APBD and GBE1 deficiency; test: Motion capture gait analysis, open-label triheptanoin study; type: in vivo, human
Description: (§1) Ages ranged from 51-66 years and all were Ashkenazi Jewish. Three patients were able to walk independently, one walked with the help of a walker and a 5th patient was wheelchair bound.
(§2) Baseline evaluation based on the criteria described in Table I, herein below was performed every 3 months.
(§3) The outcome measures included: (i) the 6 minutes walk test and (ii) motion capture gait analysis and (iii) SF-36 Health Survey Questionnaire. […] Maximal improvement seemed to occur within the first 6 months of treatment (FIG. 2). […] Physical Function score increased in 4/5 patients on the SF-36 health survey questionnaire.

[3] = tested on: patients with APBD and GBE1 deficiency; test: SF-36 Health Survey Questionnaire, open-label triheptanoin study; type: in vivo, human
Description: as §1, §2, §3

[4] = tested on: patients with APBD and GBE1 deficiency; test: Adverse event assessment, open-label triheptanoin study; type: in vivo, human; conditions: 5 patients; for Adverse events (AE): mean 8.2 months of treatment
Description: as §1
(§4) In the event of an organic acid abnormality such as an excessive urinary excretion of propionic and/or methylmalonic acid occur, biotin and/or vitamin B12 respectively were added to the regimen and normalization of the organic acid and acylcarnitine profile was verified. Should that not be sufficient the dose was reduced until normalization occurs. If still abnormal, patient was be excluded from the study.
Two adverse events not related to the triheptanoin were a broken ankle in one patient and wound treatment in another. […] Safety was also monitored throughout the study by urinary organic acids and blood acylcarnitine profile analyses. Changes in metabolic tests related the ingestion of triheptanoin were identified.

[5] = tested on: patient with pyruvate carboxylase deficiency; conditions: one patient; cited from earlier work
[6] = tested on: patients with APBD and GBE1 deficiency; test: Urinary organic acids and blood acylcarnitine profile analyses; type: in vivo, human
Description: as §4
Safety was also monitored throughout the study by urinary organic acids and blood acylcarnitine profile analyses.

[7] = tested on: patients with long chain fatty acid oxidation defects; conditions: 30% to 35% of total daily caloric intake; cited from earlier work
[8] = tested on: patients with APBD and GBE1 deficiency; test: 6 minutes walk test, open-label triheptanoin study; type: in vivo, human
Description: as §1, §2, §3

[9] = 5 patients, within 6 months of treatment

In the case of `CCCCCCC(=O)OCC(COC(=O)CCCCCC)OC(=O)CCCCCC` [triheptanoin, glyceryl triheptanoate], the Clinical response [1] is listed as “markedly improved”, the “Gait analysis: cadence, support time, stride length, step length and walking speed” value ([2]; 3 patients who were able to walk unaided) is listed as “improvement” and the Gait analysis [2, 9] is listed as “stability or slight improvement”. For the same compound, the “Patients with increased Physical Function score on the SF-36” value ([3]; 5 patients) was 4/5, the “SF-36 Health Survey Questionnaire scores” value ([3]; FIG. 3) was “tended to improve in parallel with motor score” and the “AE remotely linked to triheptanoin” value [4] was “rectal pain reported by one patient”. The “Serious AE” value [4] was “no serious AE related to triheptanoin oil”, the “Adverse events (AE)” value [4] was “No adverse events (AE) were reported” and the “Adverse events (AE)” value ([4]; listed as triheptanoin oil) was “No significant adverse events occurred”. The “Glutamine and GABA in the CSF” value [5] was “normalization”, the Catabolism of triheptanoin ([6]; conclusion from urine and plasma findings) was “catabolized completely without accumulation of secondary metabolites” and the “Mitochondrial overload from triheptanoin-derived metabolites” value ([6]; urinary organic acids) was “no evidence of mitochondrial overload”. For the same compound, the “Urinary excretion of derivatives of heptanoate oxidation (pimelate, 3-hydroxypentanoate, 3-ketopentanoate, 3-hydroxypropionate, methylcitrate)” value ([6]; urine) was “detected”, the “Clinical outcome of diet treatment” value [7] was “decreased episodes of rhabdomyolysis, improvement in pain and cardiac function” and the Propionyl overload [7] was “No propionyl overload occurred”. The “Six minute walk test distance on treatment” value ([8]; 5 patients, mean ± SD after treatment (from 1246±642), p=0.06) was 1376±692 feet, the “Six minute walk test mean increase” value ([8]; 5 patients, triheptanoin oil 1-2 g/fg/24 hours in 4 divided doses, 1246±642 at start, p=0.06) was 130 feet and the “Distance walked during 6 minutes (6 minutes walk test)” value [8, 9] was “significant improvement”. For the same compound, the “Time of maximal improvement in 6-minute walk test” value ([8]; FIG. 2) was no more than 6 months, the “6-minute walk test mean improvement” value ([8]; mean follow up of 8.5 months, n=5, p=0.06) was 10% and the “6-minute walk test improvement, one patient” value ([8]; one patient, 25 months time point) was 126 feet and 9.5%. For the same compound, the “Motor performance and quality of life” value ([8]; open-label study, 5 patients) was “evidence of improved motor performance as well as quality of life”.
